Assay [1] addresses T1, Hexokinase-4 (Homo sapiens, UniProt P35557).
T1 sequence (P35557 whole entry): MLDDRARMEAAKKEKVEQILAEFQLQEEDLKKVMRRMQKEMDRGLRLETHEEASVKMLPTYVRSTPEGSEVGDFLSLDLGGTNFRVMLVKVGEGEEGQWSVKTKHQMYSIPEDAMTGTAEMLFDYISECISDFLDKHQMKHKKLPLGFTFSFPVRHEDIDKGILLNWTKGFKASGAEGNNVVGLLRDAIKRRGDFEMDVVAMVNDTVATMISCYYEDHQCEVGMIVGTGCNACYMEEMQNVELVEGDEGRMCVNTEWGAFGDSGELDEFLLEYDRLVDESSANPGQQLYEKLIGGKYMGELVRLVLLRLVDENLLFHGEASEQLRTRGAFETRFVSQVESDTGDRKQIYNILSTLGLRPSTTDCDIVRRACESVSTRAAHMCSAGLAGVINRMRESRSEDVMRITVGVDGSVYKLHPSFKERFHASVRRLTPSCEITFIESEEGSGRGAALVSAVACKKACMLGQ
Kind of assay: Activation of human recombinant glucokinase using 5 mM glucose as substrate in presence of NAD+ by glucose 6-phosphate dehydrogenase coupled assay.

For assay [2], the target named is T1, Hexokinase-4. Kind of assay: Activation of human recombinant glucokinase using 5 mM glucose as substrate in presence of NAD+ and 4% HSA by glucose 6-phosphate dehydrogenase coupled assay.

This passage reports EC50 results from BindingDB's records for doi:10.1021/acsmedchemlett.6b00145 (Amgen, 2016).

As a reminder, the EC50 is the concentration that produces a half-maximal response.

Molecules are shown by their SMILES.

For the molecule `CNC(=O)Nc1cc(Oc2cncc(C)c2)c([C@H]2C[C@@H]2CO)cn1`, the EC50 at Hexokinase-4 [1] stood at 130 nM; at Hexokinase-4 [2], 170 nM.

For `CNC(=O)Nc1cc(Oc2cncc(C)c2)c([C@H]2C[C@@H]2C(C)(C)O)cn1`, the EC50 on Hexokinase-4 [1] was 83 nM; at Hexokinase-4 [2] it was 130 nM.

For `CNC(=O)Nc1cc(Oc2cncc(OC)c2)c([C@@H]2COCC[C@@H]2O)cn1`, the concentration giving a half-maximal response (EC50) came to 940 nM on Hexokinase-4 [1] and 920 nM at Hexokinase-4 [2].

Turning to `CNC(=O)Nc1cc(Oc2cncc(C)c2)c([C@@H]2CC[C@@H](O)C2)cn1`, the EC50 at Hexokinase-4 [1] was 97 nM; on Hexokinase-4 [2] it was 190 nM.
